Measurements as given in paper PMC9224473 (International Journal of Molecular Sciences, 2022).
Values after ≈ are worked out from the molar mass of the structure shown. Where two headings read alike, the source gives them in different places.

Key:
[1] = system: S. aureus NCTC 4163; assay: MIC, broth microdilution, standard strain; format: cell-based, Staphylococcus aureus; conditions: 35 °C; for MIC: Staphylococcus aureus, NCTC4163, 19 h
[2] = system: S. aureus ATCC 25923; assay: MIC, broth microdilution, standard strain; format: cell-based, Staphylococcus aureus; conditions: 35 °C; for MIC: Staphylococcus aureus, ATCC25923, 19 h
[3] = system: S. aureus ATCC 6538; assay: MIC, broth microdilution, standard strain; format: cell-based, Staphylococcus aureus; conditions: 35 °C; for MIC: Staphylococcus aureus, ATCC6538, 19 h
[4] = system: S. aureus ATCC 29213; assay: MIC, broth microdilution, standard strain; format: cell-based, Staphylococcus aureus; conditions: 35 °C; for MIC: Staphylococcus aureus, ATCC29213, 19 h
[5] = system: S. epidermidis ATCC 12228; assay: MIC, broth microdilution, standard strain; format: cell-based, Staphylococcus epidermidis; conditions: 35 °C; for MIC: Staphylococcus epidermidis, ATCC12228, 19 h
[6] = system: S. epidermidis ATCC 35984; assay: MIC, broth microdilution, standard strain; format: cell-based, Staphylococcus epidermidis; conditions: 35 °C; for MIC: Staphylococcus epidermidis, ATCC35984, 19 h
[7] = system: E. coli ATCC 25922; assay: MIC, broth microdilution, standard strain; format: cell-based, Escherichia coli; conditions: 35 °C; for MIC E. coli ATCC 25922: 19 h; for MIC: Escherichia coli, ATCC25922, 19 h
[8] = system: P. aeruginosa ATCC 15442; assay: MIC, broth microdilution, standard strain; format: cell-based, Pseudomonas aeruginosa; conditions: 35 °C; for MIC: Pseudomonas aeruginosa, ATCC15442, 19 h
[9] = system: S. epidermidis KR 4243; assay: MIC, broth microdilution, clinical strain; format: cell-based, Staphylococcus epidermidis; conditions: 35 °C; for MIC: Staphylococcus epidermidis, KR4243, 19 h
[10] = system: S. pasteuri KR 4358; assay: MIC, broth microdilution, clinical strain; format: cell-based, Staphylococcus pasteuri; conditions: 35 °C; for MIC: Staphylococcus pasteuri, KR4358, 19 h
[11] = system: S. aureus T 5595; assay: MIC, broth microdilution, clinical strain; format: cell-based, Staphylococcus aureus; conditions: 35 °C; for MIC: Staphylococcus aureus, T5595, 19 h
[12] = system: S. aureus T 5591; assay: MIC, broth microdilution, clinical strain; format: cell-based, Staphylococcus aureus; conditions: 35 °C; for MIC: Staphylococcus aureus, T5591, 19 h
[13] = system: E. coli 520; assay: MIC, broth microdilution, clinical strain; format: cell-based, Escherichia coli; conditions: 35 °C; for MIC: Escherichia coli, 520, 19 h
[14] = system: E. coli 600; assay: MIC, broth microdilution, clinical strain; format: cell-based, Escherichia coli; conditions: 35 °C; for MIC: Escherichia coli, 600, 19 h
[15] = system: E. coli 510; assay: MIC, broth microdilution, clinical strain; format: cell-based, Escherichia coli; conditions: 35 °C; for MIC: Escherichia coli, 510, 19 h
[16] = system: P. aeruginosa 659; assay: MIC, broth microdilution, clinical strain; format: cell-based, Pseudomonas aeruginosa; conditions: for MIC: Pseudomonas aeruginosa, 659, read-out: MIC P. aeruginosa 659, 19 h, 35 °C
[17] = system: HCT116 (human colon cancer); assay: MTT cytotoxicity assay; format: cell-based; conditions: mean SD
Procedure: (§1) The human cell lines SW480 (primary colon cancer), SW620 (lymph node metastatic colon cancer from the same patient as primary cancer cells), HCT116 (colon carcinoma), HepG2 (liver cancer), and HaCaT (immortalized keratinocytes) were obtained from the American Type Culture Collection (ATCC, Rockville, MD, USA). The SW480, SW620 and HCT116 cells were grown in MEM (ThermoSci, Waltham, MA, USA), HepG2 and HaCaT in DMEM High Glucose (Biowest SAS, Nuaillé, France) supplemented with 10% foetal bovine serum (FBS), HEPES (20 mM), and antibiotics (100 U mL^−1 of Penicillin and 100 μg mL^−1 of Streptomycin). The cells were incubated in a humidified incubator at 37 °C/5% CO2, until 80–90% confluence was reached.
(§2) The cell viability was assessed by using of MTT salt [3-(4,5-dimethylthiazol-2-yl)-2,5-diphenyltetrazolium bromide] converted by mitochondrial dehydrogenase, occurring in living cells. The cells were seeded in 96-well plates at a density of 1 × 10^4 cells per well and allowed to adhere for 24 h at 37 °C in a CO2 humidified incubator. […]. The untreated cells were used as the control.
(§3) After 72 h incubation, the medium was replaced with 200 µL per well of free-serum medium containing 0.5 mg mL^−1 MTT and incubated for 4 h at 37 °C in a CO2 humidified incubator. Subsequently, the medium was removed and dimethyl sulfoxide (DMSO) with isopropanol (1:1) was added to dissolve the formazan crystals. The optical density was measured using UVM 340 reader (ASYS Hitech GmbH, Eugendorf, Austria) at a wavelength of 570 nm. The experiments were repeated three times. The cell viability was calculated as the percent of MTT reduced in treated cells versus control cells (untreated cells). The number of viable cells cultured without tested compounds was assumed as 100%. A decreased relative MTT level indicates decreased cell viability. The IC50 values were estimated using CompuSyn version 1.0.

[18] = system: HaCaT (human immortal keratinocyte cell line); assay: MTT cytotoxicity assay; format: cell-based; conditions: 72 h, mean SD, read-out: IC50 HaCaT (normal cells)
Procedure: as §1, §2, §3

[19] = system: HepG2 (human liver cancer); assay: MTT cytotoxicity assay; format: cell-based; conditions: mean SD
Procedure: as §1, §2, §3

[20] = system: SW480 (human primary colon cancer); assay: MTT cytotoxicity assay; format: cell-based; conditions: mean SD
Procedure: as §1, §2, §3

[21] = system: SW620 (human metastatic colon cancer); assay: MTT cytotoxicity assay; format: cell-based; conditions: mean SD
Procedure: as §1
The cell viability was assessed by using of MTT salt [3-(4,5-dimethylthiazol-2-yl)-2,5-diphenyltetrazolium bromide] converted by mitochondrial dehydrogenase, occurring in living cells. […] The untreated cells were used as the control.
as §3, with “Subsequently,” for “After 72 h incubation, the medium was replaced with 200 µL per well of free-serum medium containing 0.5 mg mL^−1 MTT and incubated for 4 h at 37 °C in a CO2 humidified incubator. Subsequently,”

| Molecule | MIC [1] | MIC [2] | MIC [3] | MIC [4] | MIC [5] | MIC [6] | MIC E. coli ATCC 25922 [7] | MIC [7] | MIC [8] | MIC [9] | MIC [10] | MIC [11] | MIC [12] | MIC [13] | MIC [14] | IC50 ([17]; Homo sapiens, HCT-116, 72 h) | IC50 ([18]; Homo sapiens, HaCaT) | IC50 ([19]; Homo sapiens, HepG2, 72 h) | IC50 ([20]; Homo sapiens, SW480, 72 h) | IC50 ([21]; Homo sapiens, SW-620, 72 h) | further results |
| --- | --- | --- | --- | --- | --- | --- | --- | --- | --- | --- | --- | --- | --- | --- | --- | --- | --- | --- | --- | --- | --- |
| CC(C)[C@@H]1CC[C@@H](C)C[C@H]1OC(=O)CCN1CCN(c2cc3c(cc2F)c(=O)c(C(=O)O)cn3C2CC2)CC1 [Compound 3, 1-cyclopropyl-6-fluoro-7-{4-[3-((1R,2S,5R)-2-isopropyl-5-methylcyclohexyloxy)-3-oxopropyl]piperazin-1-yl}-4-oxo-1,4-dihydroquinoline-3-carboxylic acid] | 4 µg/mL (≈ 7.38 µM) | 4 µg/mL (≈ 7.38 µM) | 4 µg/mL (≈ 7.38 µM) | 4 µg/mL (≈ 7.38 µM) | 4 µg/mL (≈ 7.38 µM) | 4 µg/mL (≈ 7.38 µM) | 4 µg/mL (≈ 7.38 µM) | 2 to 4 µg/mL (≈ 3.69 to 7.38 µM) | 32 µg/mL (≈ 59.1 µM) | 4 µg/mL (≈ 7.38 µM) | 4 µg/mL (≈ 7.38 µM) | 4 µg/mL (≈ 7.38 µM) | 4 µg/mL (≈ 7.38 µM) | 4 µg/mL (≈ 7.38 µM) | 4 µg/mL (≈ 7.38 µM) | 27.1 ± 3.1 µM | 45.5 ± 5.1 µM | 36.8 ± 3.8 µM | 30.3 ± 1.2 µM | 38.6 ± 3.8 µM | MIC [15]: 256 µg/mL (≈ 473 µM); MIC [16]: 64 µg/mL (≈ 118 µM) |
| CC(C)[C@@H]1CC[C@@H](C)C[C@H]1OC(=O)CCCCN1CCN(c2cc3c(cc2F)c(=O)c(C(=O)O)cn3C2CC2)CC1 [Compound 5, 1-cyclopropyl-6-fluoro-7-{4-[5-((1R,2S,5R)-2-isopropyl-5-methylcyclohexyloxy)-5-oxopentyl)piperazin-1-yl)-4-oxo-1,4-dihydroquinoline-3-carboxylic acid] | 4 µg/mL (≈ 7.02 µM) | 8 µg/mL (≈ 14 µM) | 4 µg/mL (≈ 7.02 µM) | 4 µg/mL (≈ 7.02 µM) | 8 µg/mL (≈ 14 µM) | 8 µg/mL (≈ 14 µM) |  | 16 µg/mL (≈ 28.1 µM) | 256 µg/mL (≈ 449 µM) | 4 µg/mL (≈ 7.02 µM) | 4 µg/mL (≈ 7.02 µM) | 4 µg/mL (≈ 7.02 µM) | 2 µg/mL (≈ 3.51 µM) | 64 µg/mL (≈ 112 µM) | 64 µg/mL (≈ 112 µM) | 35.3 ± 1.7 µM | 43.3 ± 4.4 µM | 49.4 ± 4.6 µM | 55.4 ± 3.8 µM | 26.5 ± 2.1 µM | MIC [15]: > 256 µg/mL; MIC [16]: > 256 µg/mL |
| Cc1ccc(C(C)C)c(OC(=O)CCCCCN2CCN(c3cc4c(cc3F)c(=O)c(C(=O)O)cn4C3CC3)CC2)c1 [Compound 14, 1-cyclopropyl-6-fluoro-7-{4-[6-(2-isopropyl-5-methylphenoxy)-6-oxohexyl]piperazin-1-yl}-4-oxo-1,4-dihydroquinoline-3-carboxylic acid] | 1 µg/mL (≈ 1.73 µM) | 1 µg/mL (≈ 1.73 µM) | 2 µg/mL (≈ 3.46 µM) | 2 µg/mL (≈ 3.46 µM) | 1 µg/mL (≈ 1.73 µM) | 1 µg/mL (≈ 1.73 µM) | 2 µg/mL (≈ 3.46 µM) | 2 to 4 µg/mL (≈ 3.46 to 6.92 µM) | 16 µg/mL (≈ 27.7 µM) | 2 µg/mL (≈ 3.46 µM) | 2 µg/mL (≈ 3.46 µM) | 2 µg/mL (≈ 3.46 µM) | 4 µg/mL (≈ 6.92 µM) | 16 µg/mL (≈ 27.7 µM) | 8 µg/mL (≈ 13.8 µM) | 38.1 ± 3.4 µM | 31.8 ± 1.9 µM | 44.4 ± 3.5 µM | 35.2 ± 1.2 µM | 53.1 ± 0.3 µM | MIC [15]: 128 µg/mL (≈ 222 µM); MIC [16]: 64 µg/mL (≈ 111 µM) |
| 1-cyclopropyl-6-fluoro-7-{4-[2-(2-isopropyl-5-methylphenoxy)acetyl]piperazin-1-yl}-4-oxo-1,4-dihydroquinoline-3-carboxylic acid [Compound 10] |  |  |  |  |  |  | 32 µg/mL |  |  |  |  |  |  |  |  |  |  |  |  |  | MIC S. aureus NCTC 4163 ([1]; 19 h): 4 µg/mL; MIC S. aureus ATCC 25923 ([2]; 19 h): 4 µg/mL; MIC S. aureus ATCC 6538 ([3]; 19 h): 4 µg/mL; MIC S. aureus ATCC 29213 ([4]; 19 h): 4 µg/mL; MIC S. epidermidis ATCC 12228 ([5]; 19 h): 8 µg/mL; MIC S. epidermidis ATCC 35984 ([6]; 19 h): 8 µg/mL; MIC P. aeruginosa ATCC 15442 ([8]; 19 h): 256 µg/mL; MIC S. epidermidis KR 4243 ([9]; 19 h): 16 µg/mL; MIC S. pasteuri KR 4358 ([10]; 19 h): 16 µg/mL; MIC S. aureus T 5595 ([11]; 19 h): 8 µg/mL; MIC S. aureus T 5591 ([12]; 19 h): 8 µg/mL; MIC E. coli 520 ([13]; 19 h): 64 µg/mL; MIC E. coli 600 ([14]; 19 h): 64 µg/mL; MIC E. coli 510 ([15]; 19 h): >256 µg/mL; MIC P. aeruginosa 659 ([16]; 19 h, 35 °C): 256 µg/mL; IC50 ([17]; 72 h): > 100 µM; IC50 [18]: 37.1 ± 2.1 µM; IC50 ([19]; 72 h): 26.1 ± 0.1 µM; IC50 ([20]; 72 h): 57.2 ± 2.7 µM; IC50 ([21]; 72 h): 59 ± 1.2 µM |
| COc1cccc2c1C(=O)c1c(O)c3c(c(O)c1C2=O)C[C@@](O)(C(=O)CO)C[C@@H]3O[C@H]1C[C@H](N)[C@H](O)[C@H](C)O1 [Doxorubicin, reference compound] |  |  |  |  |  |  |  |  |  |  |  |  |  |  |  | 0.59 ± 0.02 µM | 0.29 ± 0.1 µM | 0.38 µM | 0.75 ± 0.1 µM |  |  |
| O=C(O)c1cn(C2CC2)c2cc(N3CCNCC3)c(F)cc2c1=O [Ciprofloxacin, reference compound] |  |  |  |  |  |  |  |  |  |  |  |  |  |  |  | > 100 µM | > 100 µM | > 100 µM | > 100 µM | > 100 µM |  |
